# Measured values: patent publication US20100190747A1, “Fused ring compound and use thereof” (priority 2009, published 2010)
# Molecular target: T1, delta-5-desaturase (Rattus norvegicus, UniProt Q920R3)
# T1 construct: the microsomal fraction of a rat river (10 μl), which had been diluted to 3 mg/ml; from tissue; host or cells: rat liver microsomal fraction
# Assay: Inhibitory activity on delta-5-desaturase (rat liver microsomal fraction, 14C-eicosatrienoic acid, TLC)
# Format: biochemical
# Conditions: test compound at 10 μM, room temperature, 120 minutes
# Protocol: An inhibitory activity of a test compound on delta-5-desaturase was measured according to the method described herein below. To a DMSO solution of the test compound which had been previously prepared, secondary dilution was carried out by using a buffer (300 mM NaH2PO4 [pH 7.4], 450 mM KCl, 30 mM NaF, 9 mM MgCl2, 4.5 mM glutathione [reduced form], 0.3% BSA [fatty acid free, SIGMA]). This diluent compound (10 μl) was added in a 96-well deep well block made of polypropylene, and then the microsomal fraction of a rat river (10 μl), which had been diluted to 3 mg/ml by using a microsome buffer (10 mM Tris-HCl [pH 7.4], 1 mM EDTA, and 250 mM sucrose), was added thereto. The enzyme reaction was initiated by adding 10 μl of 9 mM NADH, 9 mM ATP, 0.9 mM CoA and 10 μCi/ml (8E,11E,14E)-(1-^14C)eicosa-8,11,14-trienoic acid (PerkinElmer Inc.). The enzyme reaction was carried out at room temperature for 120 minutes, and then terminated by addition of 2.5 M NaOH (10 μl). Upon the completion of the reaction, the plate was covered with plate seal and incubated overnight in a dry heater of which temperature was set at 55° C. for saponification. Based on Bligh & Dyer method which had been described in a known document, Canadian Journal of Biochemistry and Physiology (Can. J. Biochem. Physiol.), Vol. 37, page 911, 1959), the solvent extraction of fatty acid was carried out by adding 200 μl of formic acid:methanol:chloroform (1:6:3), keeping the mixture as a single layer for a while, stirring the mixture to a sufficient level, and adding 120 μl of pure water to separate the mixture into two layers. 10 μl of the bottom chloroform layer was spotted on a reverse phase TLC plate (RP-18, 1154230001, Merck Japan, Ltd.) and then developed with acetonitrile:pure water:acetic acid (95:4.5:0.5). The TLC plate obtained after drying was transferred to an Imaging Plate (Fuji Photo Film Co., Ltd.) for more than 5 hours. Detection was carried out by using BAS-5000 (Fuji Photo Film Co., Ltd.). Numerization of thus-obtained image was carried out by using Multi Gauge Ver 2.3 (Fuji Photo Film Co., Ltd.) and an inhibitory ratio (%) of the test compound at 10 μM on delta-5-desaturase was obtained.
# T1 sequence (Q920R3 whole entry): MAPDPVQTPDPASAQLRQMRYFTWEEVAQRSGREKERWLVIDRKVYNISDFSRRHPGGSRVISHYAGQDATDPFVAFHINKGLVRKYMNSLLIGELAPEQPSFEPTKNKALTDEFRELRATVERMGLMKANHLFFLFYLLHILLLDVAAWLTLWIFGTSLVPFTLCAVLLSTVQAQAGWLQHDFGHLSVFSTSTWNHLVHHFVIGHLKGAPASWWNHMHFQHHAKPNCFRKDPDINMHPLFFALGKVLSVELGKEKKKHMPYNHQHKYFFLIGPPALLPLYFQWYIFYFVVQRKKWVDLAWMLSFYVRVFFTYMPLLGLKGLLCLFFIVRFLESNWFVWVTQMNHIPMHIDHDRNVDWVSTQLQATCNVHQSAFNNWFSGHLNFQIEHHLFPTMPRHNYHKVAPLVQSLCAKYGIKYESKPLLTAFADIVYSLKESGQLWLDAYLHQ
row,inhibition at 10 µM [%],Compound
1,100,"O=c1c2[nH]ccc2nc(SCC(F)(F)F)n1-c1ccc(OCC(F)(F)F)cc1 [Example 103, 3-[4-(2,2,2-Trifluoroethoxy)phenyl]-2-[(2,2,2-trifluoroethyl)sulfanyl]-3,5-dihydro-4H-pyrrolo[3,2-d]pyrimidin-4-one]"
2,100,"CCSc1nc2cc[nH]c2c(=O)n1-c1ccc(OCC(F)(F)F)cc1 [Example 104, 2-(Ethylsulfanyl)-3-[4-(2,2,2-trifluoroethoxy)phenyl]-3,5-dihydro-4H-pyrrolo[3,2-d]pyrimidin-4-one]"
3,100,"CCCSc1nc2cc[nH]c2c(=O)n1-c1ccc(OCC(F)(F)F)cc1 [Example 105, 2-(Propylsulfanyl)-3-[4-(2,2,2-trifluoroethoxy)phenyl]-3,5-dihydro-4H-pyrrolo[3,2-d]pyrimidin-4-one]"
4,101,"O=c1c2[nH]ccc2nc(SCCCO)n1-c1ccc(OCC(F)(F)F)cc1 [Example 116, 2-[(3-Hydroxypropyl)sulfanyl]-3-[4-(2,2,2-trifluoroethoxy)phenyl]-3,5-dihydro-4H-pyrrolo[3,2-d]pyrimidin-4-one]"
5,102,"O=c1c2[nH]ccc2nc(SCCCCO)n1-c1ccc(OCC(F)(F)F)cc1 [Example 119, 2-[(4-Hydroxybutyl)sulfanyl]-3-[4-(2,2,2-trifluoroethoxy)phenyl]-3,5-dihydro-4H-pyrrolo[3,2-d]pyrimidin-4-one]"
6,101,"NS(=O)(=O)CCCSc1nc2cc[nH]c2c(=O)n1-c1ccc(OCC(F)(F)F)cc1 [Example 120, 3-({4-Oxo-3-[4-(2,2,2-trifluoroethoxy)phenyl]-4,5-dihydro-3h-pyrrolo[3,2-d]pyrimidin-2-yl}sulfanyl)propane-1-sulfonamide]"
7,100,"CSc1nc2cc[nH]c2c(=O)n1-c1ccc(OCC(F)(F)F)cc1 [Example 121, 2-(Methylsulfanyl)-3-[4-(2,2,2-trifluoroethoxy)phenyl]-3,5-dihydro-4H-pyrrolo[3,2-d]pyrimidin-4-one]"
8,101,"CC(C)(O)CCCSc1nc2cc[nH]c2c(=O)n1-c1ccc(OCC(F)(F)F)cc1 [Example 123, 2-[(4-Hydroxy-4-methylpentyl)sulfanyl]-3-[4-(2,2,2-trifluoroethoxy)phenyl]-3,5-dihydro-4H-pyrrolo[3,2-d]pyrimidin-4-one]"
9,102,"O=c1c2[nH]ccc2nc(SCCO)n1-c1ccc(OCC(F)(F)F)cc1 [Example 127, 2-[(2-Hydroxyethyl)sulfanyl]-3-[4-(2,2,2-trifluoroethoxy)phenyl]-3,5-dihydro-4H-pyrrolo[3,2-d]pyrimidin-4-one]"
10,101,"O=c1c2[nH]ccc2nc(SC(F)F)n1-c1ccc(OCC(F)(F)F)cc1 [Example 129, 2-[(Difluoromethyl)sulfanyl]-3-[4-(2,2,2-trifluoroethoxy)phenyl]-3,5-dihydro-4H-pyrrolo[3,2-d]pyrimidin-4-one]"
11,108,"CC(C)(O)CCSc1nc2cc[nH]c2c(=O)n1-c1ccc(OCC(F)(F)F)cc1 [Example 131, 2-[(3-Hydroxy-3-methylbutyl)sulfanyl]-3-[4-(2,2,2-trifluoroethoxy)phenyl]-3,5-dihydro-4H-pyrrolo[3,2-d]pyrimidin-4-one]"
12,107,"COCCCSc1nc2cc[nH]c2c(=O)n1-c1ccc(OCC(F)(F)F)cc1 [Example 132, 2-[(3-Methoxypropyl)sulfanyl]-3-[4-(2,2,2-trifluoroethoxy)phenyl]-3,5-dihydro-4H-pyrrolo[3,2-d]pyrimidin-4-one]"
13,99,"CC(C)OCCCSc1nc2cc[nH]c2c(=O)n1-c1ccc(OCC(F)(F)F)cc1 [Example 137, 2-{[3-(1-Methylethoxy)propyl]sulfanyl}-3-[4-(2,2,2-trifluoroethoxy)phenyl]-3,5-dihydro-4H-pyrrolo[3,2-d]pyrimidin-4-one]"

# More lines, now with the values behind:
row,Compound,inhibition at 10 µM [%]
1,"O=c1c2[nH]ccc2nc(SCCCS(=O)(=O)N2CCOCC2)n1-c1ccc(OCC(F)(F)F)cc1 [Example 106, 2-{[3-(Morpholin-4-ylsulfonyl)propyl]sulfanyl}-3-[4-(2,2,2-trifluoroethoxy)phenyl]-3,5-dihydro-4H-pyrrolo[3,2-d]pyrimidin-4-one]",102
2,"O=c1c2[nH]ccc2nc(SCCCS(=O)(=O)NCC(F)(F)F)n1-c1ccc(OCC(F)(F)F)cc1 [Example 107, 3-({4-Oxo-3-[4-(2,2,2-trifluoroethoxy)phenyl]-4,5-dihydro-3H-pyrrolo[3,2-d]pyrimidin-2-yl}sulfanyl)-N-(2,2,2-trifluoroethyl)propane-1-sulfonamide]",100
3,"O=c1c2[nH]ccc2nc(SCCCS(=O)(=O)NC2CC2)n1-c1ccc(OCC(F)(F)F)cc1 [Example 108, N-cyclopropyl-3-({4-oxo-3-[4-(2,2,2-trifluoroethoxy)phenyl]-4,5-dihydro-3H-pyrrolo[3,2-d]pyrimidin-2-yl}sulfanyl)propane-1-sulfonamide]",101
4,"O=C(CCCSc1nc2cc[nH]c2c(=O)n1-c1ccc(OCC(F)(F)F)cc1)N1CCOCC1 [Example 109, 2-[(4-Morpholin-4-yl-4-oxobutyl)sulfanyl]-3-[4-(2,2,2-trifluoroethoxy)phenyl]-3,5-dihydro-4H-pyrrolo[3,2-d]pyrimidin-4-one]",101
5,"O=C(CCCSc1nc2cc[nH]c2c(=O)n1-c1ccc(OCC(F)(F)F)cc1)N1CCCC1 [Example 110, 2-[(4-Oxo-4-pyrrolidin-1-ylbutyl)sulfanyl]-3-[4-(2,2,2-trifluoroethoxy)phenyl]-3,5-dihydro-4H-pyrrolo[3,2-d]pyrimidin-4-one]",102
6,"O=c1c2[nH]ccc2nc(SCCN2CCOCC2)n1-c1ccc(OCC(F)(F)F)cc1 [Example 111, 2-[(2-Morpholin-4-ylethyl)sulfanyl]-3-[4-(2,2,2-trifluoroethoxy)phenyl]-3,5-dihydro-4H-pyrrolo[3,2-d]pyrimidin-4-one]",98
7,"O=c1c2[nH]ccc2nc(SCCCN2CCOCC2)n1-c1ccc(OCC(F)(F)F)cc1 [Example 112, 2-[(3-Morpholin-4-ylpropyl)sulfanyl]-3-[4-(2,2,2-trifluoroethoxy)phenyl]-3,5-dihydro-4H-pyrrolo[3,2-d]pyrimidin-4-one]",102
8,"CC(C)CCOc1ccc(-n2c(SCCCC(=O)NCCC#N)nc3cc[nH]c3c2=O)cc1 [Example 113, N-(2-cyanoethyl)-4-({3-[4-(3-methylbutoxy)phenyl]-4-oxo-4,5-dihydro-3H-pyrrolo[3,2-d]pyrimidin-2-yl}sulfanyl)butanamide]",102
9,"CC(C)(C)COc1ccc(-n2c(SCCCC(=O)NCCC#N)nc3cc[nH]c3c2=O)cc1 [Example 115, N-(2-cyanoethyl)-4-({3-[4-(2,2-dimethylpropoxy)phenyl]-4-oxo-4,5-dihydro-3H-pyrrolo[3,2-d]pyrimidin-2-yl}sulfanyl)butanamide]",103
10,"CC(C)OCC(O)CSc1nc2cc[nH]c2c(=O)n1-c1ccc(OCC(F)(F)F)cc1 (stereo not drawn) [Example 130, 2-{[2-Hydroxy-3-(1-methylethoxy)propyl]sulfanyl}-3-[4-(2,2,2-trifluoroethoxy)phenyl]-3,5-dihydro-4H-pyrrolo[3,2-d]pyrimidin-4-one]",100
11,"CC1(O)CCN(C(=O)CCCSc2nc3cc[nH]c3c(=O)n2-c2ccc(OCC(F)(F)F)cc2)CC1 [Example 134, 2-{[4-(4-Hydroxy-4-methylpiperidin-1-yl)-4-oxobutyl]sulfanyl}-3-[4-(2,2,2-trifluoroethoxy)phenyl]-3,5-dihydro-4H-pyrrolo[3,2-d]pyrimidin-4-one]",100
12,"O=C(CCCSc1nc2cc[nH]c2c(=O)n1-c1ccc(OCC(F)(F)F)cc1)N1CCS(=O)(=O)CC1 [Example 135, 2-{[4-(1,1-Dioxidothiomorpholin-4-yl)-4-oxobutyl]sulfanyl}-[4-(2,2,2-trifluoroethoxy)phenyl]-3,5-dihydro-4H-pyrrolo[3,2-d]pyrimidin-4-one]",100
13,"O=C(CCCSc1nc2cc[nH]c2c(=O)n1-c1ccc(OCC(F)(F)F)cc1)N1CCSCC1 [Example 136, 2-[(4-Oxo-4-thiomorpholin-4-ylbutyl)sulfanyl]-3-[4-(2,2,2-trifluoroethoxy)phenyl]-3,5-dihydro-4H-pyrrolo[3,2-d]pyrimidin-4-one]",99
14,"CCOCCCSc1nc2cc[nH]c2c(=O)n1-c1ccc(OCC2CC2)cc1 [Example 139, 3-[4-(Cyclopropylmethoxy)phenyl]-2-[(3-ethoxypropyl)sulfanyl]-3,5-dihydro-4H-pyrrolo[3,2-d]pyrimidin-4-one]",101
